# Columns and labels:
# [1] = test system: rabbit right ventricle papillary muscle; assay: Positive inotropic effect (contractility) in isolated, electrically driven papillary muscle; assay type: cell-based; conditions: for EC50 / Emax: Oryctolagus cuniculus; for EC50: iv, papillary muscle driven at 1HZ, rabbits pretreated with reserpine (5 mg/kg i.v.), Krebs-buffer pH 7.4, 32°C, read-out: Tmax EC50; for Emax: maximal effect compared with maximal effect of isoprenaline (intrinsic activity), rabbits pretreated with reserpine, read-out: Tmax ISA
# Procedure: (§1) Pharmacological studies on cardiac effects on heart frequency and contractility in isolated right atria and papillary muscle from rabbit.
# (§2) Rabbits with an average weight of 2.5 kg, pretreated with reserpine (5 mg/kg i.v.) about 16 hours before the experiment were used. The rabbits were killed by a blow and the hearts were rapidly removed. The right atria and a papillary muscle from the right ventricle were isolated and set up to contract isometrically in an organ bath. The bath contained 50 ml Krebs-buffer (pH 7.4) and the temperature was kept at 32°C.
# (§3) The contractions were measured by means of a force displacement transducer (Grass Model FT03) coupled to a.Grass Model 7 Polygraph with a preampliphier (Grass Model 7PIF). ,
# (§4) The spontaneously beating right atria was stretched to a resting tension high enough to measure the contractions and to trigger a tachograph for registration of the frequency. The papillary muscle was stretched to the length at which maximal tension was developed and was driven at a frequency of 1HZ by a current 20 per cent above threshold and with a duration of 5 msec.
# (§5) After 60 min. equilibration, dose response curves to cumulative concentrations of isoprenaline were constructed for chronotropic effect, i.e. increase in frequency (atria) and positive inotropic effect, i.e. increase in contractility (papillary muscle). After wash-out similar curves were constructed for the compounds employed according to the invention. The positive inotropic agent dopamine was included for comparison.
# (§6) In order to establish the maximal chronotropic and inotropic responses of the preparations, isoprenaline was added immediately after the maximal concentrations of the compounds. The maximal effects of the compounds compared with the maximal effect of isoprenaline are expressed as intrinsic activity (ISA).
# rabbit right atria = assay: Chronotropic effect (heart frequency) in isolated spontaneously beating right atria; assay type: cell-based; conditions: Oryctolagus cuniculus; for EC50: iv, isolated right atria, rabbits pretreated with reserpine (5 mg/kg i.v.), Krebs-buffer pH 7.4, 32°C, read-out: HR EC50; for Emax: maximal effect compared with maximal effect of isoprenaline (intrinsic activity), rabbits pretreated with reserpine, read-out: HR ISA
# Procedure: as §1, §2, §3, §4, §5, §6
EC50 [1] [µM],EC50 (rabbit right atria) [µM],SMILES,Emax [1] [%],Emax (rabbit right atria) [%],EC50 for contractility relative to the EC50 for dopamine ([1]; fraction of the dopamine EC50)
36,38,NCCc1ccc(O)c(O)c1 [Dopamine],77,97,
0.01,0.003,CC(C)NCC(O)c1ccc(O)c(O)c1 (stereo not shown) [Isoprenaline],100,100,

SMILES,EC50 [1] [µM],EC50 (rabbit right atria) [µM],Emax [1] [%],Emax (rabbit right atria) [%],EC50 for contractility relative to the EC50 for dopamine ([1]; fraction of the dopamine EC50)
"CCCN1CCCCC(c2cccc(O)c2)C1 (stereo not shown) [Example 1, 3-(3-hydroxyphenyl)N-n-propylperhydroazepine]",11,0.35,37,31,about one third
